# Results: patent US12220421B2, “Inhibitors of C. difficile spore germination” (THE BOARDS OF REGENTS OF THE NEVADA SYSTEM OF HIGHER …, priority 2021, dated 2025)
# Read-outs that look alike come from different tables or passages of the source.
# Columns and labels:
# [1] = system: C. difficile R20291 spores; experiment: C. difficile spore germination assay (optical density, OD580); settings: 6 mM taurocholate, 12 mM glycine; for IC50 / activity at 125 µM: Clostridioides difficile, R20291SPORES; for IC50 / % Germination (125 μM): Table 5; for activity at 125 µM: read-out: % Germination (125 μM), Table 5; for activity at 125 µM / % Germination (125 μM): compound 125 μM, 100% indicates no inhibition
# C. difficile 630 strain = settings: literature, cited from earlier work
# [2] = system: C. difficile R20291 spores; settings: R20291 strain, literature; read-out: IC50 against R20291 strain; cited from earlier work
# [3] = target: C. difficile spore germination; settings: literature values; read-out: Ki, inhibition of germination; cited from earlier work
SMILES,activity at 125 µM [1] [%],further results
C[C@H](CCC(=O)Nc1ccccc1)[C@H]1CC[C@H]2[C@@H]3[C@H](O)C[C@@H]4C[C@H](O)CC[C@]4(C)[C@H]3CC[C@]12C [Compound 53],14 ± 0.6,IC50 [1]: 4 ± 0.5 µM; Activity against 630 strain (C. difficile 630 strain): inactive up to the maximum tested concentration
Cc1ccc(F)cc1NC(=O)CC[C@@H](C)[C@H]1CC[C@H]2[C@@H]3[C@H](O)C[C@@H]4C[C@H](O)CC[C@]4(C)[C@H]3CC[C@]12C [Compound 56],66 ± 6,
C[C@H](CCC(=O)Nc1ccccc1)[C@H]1CC[C@H]2[C@@H]3CC[C@@H]4C[C@H](O)CC[C@]4(C)[C@H]3C[C@H](O)[C@]12C [Compound 57],3 ± 0.2,IC50 [1]: 1.3 ± 0.1 µM
COc1ccccc1NC(=O)CC[C@@H](C)[C@H]1CC[C@H]2[C@@H]3CC[C@@H]4C[C@H](O)CC[C@]4(C)[C@H]3CC[C@]12C [Compound 58],,IC50 [1]: 2.4 ± 0.3 µM; % Germination (125 μM) [1]: 0.4 ± 3%
C[C@H](CCC(=O)Nc1cccc(F)c1)[C@H]1CC[C@H]2[C@@H]3CC[C@@H]4C[C@H](O)CC[C@]4(C)[C@H]3C[C@H](O)[C@]12C [Compound 59],59 ± 5,
Cc1ccc(F)cc1NC(=O)CC[C@@H](C)[C@H]1CC[C@H]2[C@@H]3CC[C@@H]4C[C@H](O)CC[C@]4(C)[C@H]3C[C@H](O)[C@]12C [Compound 60],65 ± 0.9,
C[C@H](CCC(=O)Nc1ccccc1)[C@H]1CC[C@H]2[C@@H]3CC[C@@H]4C[C@H](O)CC[C@]4(C)[C@H]3CC[C@]12C [Compound 61],100,
COc1ccccc1NC(=O)CC[C@@H](C)[C@H]1CC[C@H]2[C@@H]3CC[C@@H]4C[C@H](O)CC[C@]4(C)[C@H]3CC[C@]12C [Compound 62],,% Germination (125 μM) [1]: 100%
C[C@H](CCC(=O)Nc1cccc(F)c1)[C@H]1CC[C@H]2[C@@H]3CC[C@@H]4C[C@H](O)CC[C@]4(C)[C@H]3CC[C@]12C [Compound 63],100,
Cc1ccc(F)cc1NC(=O)CC[C@@H](C)[C@H]1CC[C@H]2[C@@H]3CC[C@@H]4C[C@H](O)CC[C@]4(C)[C@H]3CC[C@]12C [Compound 64],100,
C[C@H](CCC(=O)Nc1ccccc1)[C@H]1CC[C@H]2[C@@H]3[C@@H](O)C[C@@H]4C[C@H](O)CC[C@]4(C)[C@H]3CC[C@]12C [Compound 65],57 ± 0.8,
COc1ccccc1NC(=O)CC[C@@H](C)[C@H]1CC[C@H]2[C@@H]3[C@@H](O)C[C@]4(C)C[C@H](O)CC[C@]4(C)[C@H]3CC[C@]12C [Compound 66],100,
C[C@H](CCC(=O)Nc1cccc(F)c1)[C@H]1CC[C@H]2[C@@H]3[C@@H](O)C[C@]4(C)C[C@H](O)CC[C@]4(C)[C@H]3CC[C@]12C [Compound 67],100,
Cc1ccc(F)cc1NC(=O)CC[C@@H](C)[C@H]1CC[C@H]2[C@@H]3[C@@H](O)C[C@@H]4C[C@H](O)CC[C@]4(C)[C@H]3CC[C@]12C [Compound 68],100,
C[C@H](CCC(=O)Nc1ccccc1)[C@H]1CC[C@H]2[C@@H]3CCC4CCCC[C@]4(C)[C@H]3CC[C@]12C (stereo partly drawn) [N-(Phenyl)-cholan-24-amide],,IC50 [2]: 1.8 µM; IC50 (C. difficile 630 strain; read-out: IC50 against 630 strain): 270 µM
C[C@H](CCC(=O)O)[C@H]1CC[C@H]2[C@@H]3[C@H](O)C[C@@H]4C[C@H](O)CC[C@]4(C)[C@H]3CC[C@]12C [chenodeoxycholate],,Ki [3]: 378 µM
